Experimental data taken from patent US9913858B2, “Prevention and treatment of toxicosis” (priority 2013, dated 2018).
Like-named read-outs stand apart in the source and are kept apart here.

How the values were obtained:
cerebellum = format: in vivo; conditions: sheep cerebellum
Protocol: A full clinical examination was performed prior to euthanasia. At euthanasia, 100 I.U. heparin (Provet Riverina Pty Ltd) was injected into the jugular vein, followed shortly by Lethabarb (20 mL/40 kg LW). Immediately after euthanasia, the ventral articulation of C1 was exposed and cerebrospinal fluid (CSF) collected using a 23 g needle. The head was then removed and subjected to perfusion fixation. Briefly, the carotid arteries were exposed and a small catheter inserted and ligated to secure the perfusion lines. Two liters of 0.1% phosphate buffered saline (PBS) containing 3000 I.U of heparin/L was then slowly perfused via the ligated vessels at a pressure of 90 mm Hg using a Microgon peristaltic Pump (Microgon, Laguna Hills, Calif.). Once complete this was replaced with 4% paraformaldehyde (Sigma-Alrich) in 0.1% PBS and a further two liters allowed to perfuse slowly through the tissues of the head. Once complete, catheters were removed and the whole head placed at 4° C. overnight to complete fixation. Twenty-four hours post perfusion fixation the brain was removed from the skull and placed in 10% formal saline for storage until dissection for processing to wax sections.
Concurrent to fixation perfusion of the head, a routine ovine necropsy was performed and all general tissues taken for routine histopathology. These were heart, lung, oesophagus and trachea, liver, spleen, gut (rumen, abomasum, ileocaecal junction, ileum, caecum and colon), skeletal muscle (gluteal, tricep and diaphram), kidney, pancreas, thymus, ileal and cranial lymph nodes as well as tissues from any gross abnormalities observed at time post necropsy. Other samples: subcutaneous fat, renal fat, gluteal muscle, kidney, faeces and rumen contents were collected and stored at −80° C. for future toxicological analysis. Samples for routine histopathology were fixed in 10% formal saline for a minimum of 48 hours before processing to wax using an automated wax embedder (Shandon Excelsior ES Tissue Processor, Thermo Fisher Scientific).
For histopathology, sections of brain and spinal cord included the following regions: mid cerebellar peduncle; mid and lateral sections of cerebellum; obex, occipital cortex; rostral colliculi; basal ganglia; frontal cortex; temporal cortex; thalamus; hippocampus; internal capsule; cervical, thoracic and lumbar spinal cord and pituitary. Other tissues examined for routine histopathology were kidney; lung; ileum; heart; liver including, gall bladder and bile duct; diaphragm; rumen; and colon. All sections were cut at 5 μm and stained with Haematoxylin and Eosin (H&E) using an automated staining system (Shandon Varistain Gemini ES Slide Stainer, Thermo Fisher Scientific).

[1] = system: lolitrem B toxicosis (Rye Grass Staggers); experiment: Gait analysis and time to falling; format: in vivo, sheep; conditions: for time to falling: by context untreated, toxin only
Protocol: Gait analysis was performed on entry to the trial and at designated time points throughout the trial as described above. To achieve this, animals were moved from their individual pens to an external yard in their cohort groups (five animals, one from each treatment). Animals were then encouraged to move at a run, initially in a group and then individually, for a minimum of three minutes per animal whilst their movement was captured on video and gait observations recorded.
Once all animals had been analysed the whole cohort was returned to their individual pens. Gait abnormalities such as stumbling, falling or disorientation were noted, including observation of Type 1 or Type 2 gait changes as described in Combs et, al., (2014). Type I movement disorder is defined as an impaired alternating movement (dysdiadochokinesia), bunny-hopping gait and failure to maintain an appropriate direction. Type 2 movement disorder is defined by increasing rigidity of limbs on forced movement resulting finally in tonic fore and hind limb extension with the animal collapsing into sternal or lateral recumbency (Combs, Rendell et at 2014). Scores between those denoted above were considered as a gradation between the stated clinical observations. Analysis of gait was performed using the following scale in Table 2 and a composite score noted for each animal for each day during the end of trial protocol. A total score out of 30 was determined for each animal. The higher the score the greater the locomotory disturbance. Time to falling was determined post trial by analysis of video material,
Animals that met the entry criteria (severe Type 2 gait abnormality and falling) were submitted to the end-of-trial protocol. […] Animals were subjected to the following tests on days 1 and 3: gait analysis, full neurological examination, venous blood and urine sampling and EMG. Only gait analysis was performed on day 2.

[2] = Group 3: toxin plus acute treatment
[3] = Group 4: toxin plus prophylactic treatment
[4] = Group 5: prophylactic treatment only

Compound: [Br-].[K+] [potassium bromide]
- Incidence of Purkinje neuron vacuolation (cerebellum; [2]): 2/9
- Incidence of pyknotic cell bodies in granular layer (cerebellum; [2]): 5/9
- Incidence of spheroids, granular layer (cerebellum; [2]): 7/9
- Incidence of spheroids, molecular layer (cerebellum; [2]): 0/9
- Incidence of Purkinje neuron vacuolation (cerebellum; [3]): 1/9
- Incidence of pyknotic cell bodies in granular layer (cerebellum; [3]): 9/9
- Incidence of spheroids, granular layer (cerebellum; [3]): 6/9
- Incidence of spheroids, molecular layer (cerebellum; [3]): 3/9
- Incidence of Purkinje neuron vacuolation (cerebellum; [4]): 0/9
- Incidence of pyknotic cell bodies in granular layer (cerebellum; [4]): 2/9
- Incidence of spheroids, granular layer (cerebellum; [4]): 1/9
- Incidence of spheroids, molecular layer (cerebellum; [4]): 3/9
- composite gait score, Day 1 (pre-treatment) to Day 2 (24 hours post treatment) ([1]; Group 3 sheep, lolitrem B toxin, oral 300 mg/kg LW potassium bromide, p=0.001): significant reduction
- time to falling in intoxicated animals ([1]; intoxicated sheep, oral 300 mg/kg BW potassium bromide on day of falling): significantly improve
- animals failing to fall when driven to movement for a continuous period of 5 minutes ([1]; intoxicated sheep, oral 300 mg/kg BW potassium bromide on day of falling, 24 and 48 hours after treatment): 8/9
- animals progressing to falling in the designated 22 days of treatment ([1]; sheep, prophylactic potassium bromide plus toxic feed (Group 4)): one

Compound: CC(C)=C[C@H]1O[C@H]2[C@H]3O[C@@]34[C@H](CC[C@@]3(C)[C@@]4(O)CC[C@H]4Cc5c([nH]c6ccc7c(c56)C[C@@H]5[C@@H](C7=O)C(C)(C)OC5(C)C)[C@@]43C)O[C@@H]2C(C)(C)O1 [lolitrem B]
- Incidence of Purkinje neuron vacuolation (cerebellum; Group 2: toxin only): 5/9
- Incidence of pyknotic cell bodies in granular layer (cerebellum; Group 2: toxin only): 9/9
- Incidence of spheroids, granular layer (cerebellum; Group 2: toxin only): 7/9
- Incidence of spheroids, molecular layer (cerebellum; Group 2: toxin only): 1/9
- composite gait scores over the same time course ([1]; Group 2 sheep, untreated intoxicated, p=0.05): increase
- animals falling, no improvement over the same time period ([1]; positive control sheep, toxic feed, not treated with potassium bromide): 7/7
- time to falling ([1]; printed as Group 3 Day 2): 59.0 ± 23.50 s
- time to falling ([1]; printed as Group 3 Day 3): 51.52 ± 20.23 s
- animals progressing to falling over the same timeframe (22 days) ([1]; sheep, Groups 2 and 3, toxic feed): 5
